Drawing on US7659275B2, “Piperidinyl piperazine derivatives useful as inhibitors of chemokine receptors” (priority 2005, dated 2010), this text covers IC50 and melting point for four compounds.

Where only a bound is given, the exact number is not on record here.

For series [1], the system named is HIV-1 YU-2 luciferase reporter virus in U87-CD4-CCR5 cells. As to the kind of experiment: Luciferase Replication assay (HIV replication). It counts as cell-based. The following applies: Human immunodeficiency virus 1, U87/CD4/CCR5, 72 h, read-out: HIV Replication IC50 luciferase (nM, Yu-2). On the procedure: Luciferase Replication Assay:
Plasmids encoding the full length genome of HIV-1 pNL-4-Luc with the gp 120 V-3 loop replaced by the Bgl II fragment of HIV-1 ADA, YU-2 or HxB (ADA-Luc-FL, YU-2-Luc-FL and HxB-Luc-FL) were obtained from Dr. Susan Pontow (Washington University, St. Louis Mo.). Replication-competent luciferase reporter virus stocks were generated by transfection of plasmids into 293T cells using Superfect (Qiagen) or Mirus transfection reagents. Viral stocks were collected 48 hours following transfection and titered for luciferase production on U-87-CCR5 or CXCR4 cells. U87-CD4-CCR5 cells ([…]) were plated in 96-well cell culture plates and incubated overnight. Media was removed and replaced with 50 μl of fresh culture media (DMEM, 10% FCS) and 50 μl of compound diluted in culture medium. Cells were incubated with compound at 37° C. for 1 hour. The resultant supernatant was removed and replaced with 20 μl of media containing compound and infected with an equal volume of diluted or undiluted virus stock at 37° C. for 3-4 hours. The cells were washed once with DMEM, and 200 μl of media containing compound was added. The cultures were incubated for 3 days, the cells lysed in luciferase lysis buffer (Promega, Madison, Wis.) and transferred to Immulon plates (Dynex Technologies, Chantilly Va.). An equal volume of luciferase substrate (Promega, Madison Wis.) was added to lysates and the plates read immediately in a Wallac Luminometer. Fifty and ninety percent inhibitory concentrations were determined using GraphPad PRISM software.

In the case of `Cc1nn(O)c(C)c1C(=O)N1CCC(C)(N2CCN([C@@H](c3cccc(F)c3)C3CCN(S(=O)(=O)C4CC4)CC3)[C@@H](C)C2)CC1`, the melting point (as a rule, the temperature of the solid-liquid transition) fell in the range of 214 to 215 °C. The 50% inhibitory concentration (IC50) (commonly the midpoint of a concentration-inhibition curve) in series [1] turned out to be 43 nM. On to `CC[C@@H](c1ccc(C(F)(F)F)cc1)N1CCN(C2(C)CCN(C(=O)c3c(C)nn(O)c3C)CC2)C[C@@H]1C`, for which the IC50 in series [1] was greater than 100 nM. Turning to `COC[C@@H](c1ccc(C(F)(F)F)cc1)N1CCN(C2(C)CCN(C(=O)c3c(C)nn(O)c3C)CC2)C[C@@H]1C`, the IC50 in series [1] came to 8 nM. For the compound `COC[C@@H](c1ccc(C(F)(F)F)cc1)N1CCN(C2(C)CCN(C(=O)c3c(C)nn(OCc4ccccc4)c3C)CC2)C[C@@H]1C`, the concentration for half-maximal inhibition (IC50) in series [1] came out at 0.4 nM.
